Test results published in patent US9249123B2, “Pyridinones/pyrazinones, method of making, and method of use thereof” (Genentech, Inc., priority 2010, dated 2016).
pEC50: −log10 of the molar value.

System: CD86 surface expression on CD19+/7AAD- total mouse splenocytes stimulated with IgM
Experiment: CD86 Inhibition Assay
Assay type: cell-based
Conditions: Splenocyte; Balb/c mouse splenocytes, IgM stimulation, 24 hr
Experimental: A CD86 Inhibition assay can be conducted on Formula I compounds for the inhibition of B cell activity using total mouse splenocytes purified from spleens of 8-16 week old Balb/c mice (Example 905).
A generalized procedure for a standard assay for the inhibition of B cell activity that can be used to test Formula I compounds is as follows. Total mouse splenocytes are purified from spleens of 8-16 week old Balb/c mice by red blood cell lysis (BD Pharmingen #555899). Testing compounds are diluted to 0.5% DMSO and incubated with 1.25×10^6 splenocytes in a final volume of 200 μl in flat clear bottom plates (Falcon 353072) for 60 min at 37° C. Cells are then stimulated with the addition of 15 μg/ml IgM (Jackson ImmunoResearch 115-006-020), and incubated for 24 hr at 37° C., 5% CO2. Following the 24 hr incubation, cells are transferred to conical bottom clear 96-well plates and pelleted by centrifugation at 1200×g×5 min. Cells are preblocked by CD16/CD32 (BD Pharmingen #553142), followed by triple staining with CD19-FITC (BD Pharmingen #553785), CD86-PE (BD Pharmingen #553692), and 7AAD (BD Pharmingen #51-68981E). Cells are sorted on a BD FACSCalibur and gated on the CD19^+/7AAD^− population. The levels of CD86 surface expression on the gated population is measured versus test compound concentration. Exemplary results are in Table 3.

| SMILES | pEC50 |
| --- | --- |
| Cn1cc(-c2cccc(N3Cc4cc(C(C)(C)C)ccc4C3=O)c2CO)nc(Nc2cnn(C3CC3)c2)c1=O [Compound 109, 5-tert-butyl-2-(3-(6-(1-cyclopropyl-1H-pyrazol-4-ylamino)-4-methyl-5-oxo-4,5-dihydropyrazin-2-yl)-2-(hydroxymethyl)phenyl) isoindolin-1-one] | 6.95 |
| Cn1cc(-c2cccc(N3Cc4cc(C(C)(C)C)ccc4C3=O)c2CO)cc(Nc2ccc(C3CNC3)cn2)c1=O [Compound 117, 2-(3-(5-(5-(azetidin-3-yl)pyridin-2-ylamino)-1-methyl-6-oxo-1,6-dihydropyridin-3-yl)-2-(hydroxymethyl)phenyl)-5-tert-butylisoindolin-1-one] | 6.81 |
| Cc1c(-c2cn(C)c(=O)c(Nc3ccc(C4C(=O)N(C)CCN4C)cc3)n2)cccc1N1Cc2cc(C(C)(C)C)ccc2C1=O (centres unmarked) [Compound 127, 5-tert-butyl-2-[3-(6-{[4-(1,4-dimethyl-3-oxopiperazin-2-yl)phenyl]amino}-4-methyl-5-oxo-4,5-dihydropyrazin-2-yl)-2-methylphenyl]-2,3-dihydro-1H-isoindol-1-one] | 6.30 |
| Cn1cc(-c2ccc(F)c(N3Cc4cc(C(C)(C)C)sc4C3=O)c2CO)cc(Nc2ccncn2)c1=O [Compound 141, 5-(3-{2-tert-butyl-6-oxo-4H,5H,6H-thieno[2,3-c]pyrrol-5-yl}-4-fluoro-2-(hydroxymethyl)phenyl)-1-methyl-3-(pyrimidin-4-ylamino)-1,2-dihydropyridin-2-one] | 6.11 |
| CN1CCN(c2ccc(Nc3cc(-c4cccc(N5Cc6cc(C(C)(C)C)sc6C5=O)c4CO)cn(C)c3=O)nc2)CC1 [Compound 146, 5-(3-{2-tert-butyl-6-oxo-4H,5H,6H-thieno[2,3-c]pyrrol-5-yl}-2-(hydroxymethyl)phenyl)-1-methyl-3-{[5-(4-methylpiperazin-1-yl)pyridin-2-yl]amino}-1,2-dihydropyridin-2-one] | 7.54 |
| Cn1cc(-c2cccc(N3Cc4cc(C(C)(C)C)sc4C3=O)c2CO)nc(Nc2ccc(C3CCNCC3)cc2)c1=O [Compound 152, 5-(3-{2-tert-butyl-6-oxo-4H,5H,6H-thieno[2,3-c]pyrrol-5-yl}-2-(hydroxymethyl)phenyl)-1-methyl-3-{[4-(piperidin-4-yl)phenyl]amino}-1,2-dihydropyrazin-2-one] | 6.51 |
| Cn1cc(-c2cccc(N3Cc4cc(C(C)(C)C)sc4C3=O)c2CO)cc(Nc2cc3n(n2)CCOC3)c1=O [Compound 154, 5-(3-{2-tert-butyl-6-oxo-4H,5H,6H-thieno[2,3-c]pyrrol-5-yl}-2-(hydroxymethyl)phenyl)-1-methyl-3-{4H,6H,7H-pyrazolo[3,2-c][1,4]oxazin-2-ylamino}-1,2-dihydropyridin-2-one] | 6.83 |
| Cc1cc(Nc2cc(-c3cccc(N4Cc5cc(C(C)(C)C)sc5C4=O)c3CO)cn(C)c2=O)n[nH]1 [Compound 157, 5-(3-{2-tert-butyl-6-oxo-4H,5H,6H-thieno[2,3-c]pyrrol-5-yl}-2-(hydroxymethyl)phenyl)-1-methyl-3-[(5-methyl-1H-pyrazol-3-yl)amino]-1,2-dihydropyridin-2-one] | 6.64 |
